Assay results reported in US10953027B2, “Active agents and methods of their use for the treatment of metabolic disorders and nonalcoholic fatty liver disease” (Flagship Pioneering Innovations V, Inc., priority 2018, dated 2021).

Assays:
Type in all cases: in vitro ADME
[1] = Assay 1. Stability in Simulated Gastric Fluid (SGF); settings: 1 μM, 37° C., SGF pH 1.6 with pepsin
In short: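 Simulated gastric fluid, prepared fresh as NaCl buffer at pH 1.6 with 0.1 mg/mL pepsin and FaSSIF powder, received test compound to 1 μM final and was held at 37 °C. LC/MS of acetonitrile-quenched samples, taken immediately and then periodically, gave degradation rates.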

[2] = Assay 3. Fecal Incubation Stability; settings: 1 or 10 μM, human fecal slurry, anaerobic
[3] = Assay 2. Stability in Simulated Intestinal Fluid (SIF); settings: 1 μM, 37° C., SIF pH 6.7 with pancreatin
In short: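 Degradation rate measured by LC/MS after acetonitrile quench of timed aliquots, starting at T0. Test compound 1 μM in simulated intestinal fluid (pH 6.7 phosphate buffer, FaSSIF powder, pancreatin), shaken at 37 °C.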

## CC(=O)OC[C@H]1O[C@@H](OC(C)=O)[C@H](N)[C@@H](OC(C)=O)[C@@H]1OC(C)=O [Compound 194, (2S,3R,4R,5S,6R)-6-(acetoxymethyl)-3-aminotetrahydro-2H-pyran-2,4,5-triyl Triacetate]
[1]
  Assay 1 (SGF) (% Remaining @ 1 hours): C (C: >75% of the tested compound remaining)
[2]
  Assay 3 (% Remaining at 24 h): C (C: >75% of the tested compound remaining)
[3]
  Assay 2 (SIF) (% @ Remaining 4 hours): A (A: <25% of the tested compound remaining)

## CC(=O)O[C@H]1O[C@H](C(=O)O)[C@@H](OC(C)=O)[C@H](OC(C)=O)[C@H]1OC(C)=O [Compound 195, (2S,3S,4S,5R,6R)-3,4,5,6-tetraacetoxytetrahydro-2H-pyran-2-carboxylic Acid]
[1]
  Assay 1 (SGF) (% Remaining @ 1 hours): C (C: >75% of the tested compound remaining)
[2]
  Assay 3 (% Remaining at 24 h): B (B: 25-75% of the tested compound remaining)
[3]
  Assay 2 (SIF) (% @ Remaining 4 hours): C (C: >75% of the tested compound remaining)

## CCC(=O)Oc1ccc(-c2cc(=O)c3c(O)cc(OC(=O)CC)cc3o2)cc1 [Compound 199, 5-hydroxy-4-oxo-2-[4-(propanoyloxy)phenyl]-4H-chromen-7-yl Propanoate]
[1]
  Assay 1 (SGF) (% Remaining @ 1 hours): B (B: 25-75% of the tested compound remaining)
[2]
  Assay 3 (% Remaining at 24 h): A (A: <25% of the tested compound remaining)
[3]
  Assay 2 (SIF) (% @ Remaining 4 hours): A (A: <25% of the tested compound remaining)

## CCCC(=O)Oc1ccc(-c2cc(=O)c3c(OC(=O)CCC)cc(OC(=O)CCC)cc3o2)cc1 [Compound 201, 5-(butanoyloxy)-2-[4-(butanoyloxy)phenyl]-4-oxo-4H-chromen-7-yl Butanoate]
[1]
  Assay 1 (SGF) (% Remaining @ 1 hours): B (B: 25-75% of the tested compound remaining)
[2]
  Assay 3 (% Remaining at 24 h): A (A: <25% of the tested compound remaining)
[3]
  Assay 2 (SIF) (% @ Remaining 4 hours): A (A: <25% of the tested compound remaining)

## CCC(=O)Oc1ccc(-c2cc(=O)c3c(OC(=O)CC)cc(OC(=O)CC)cc3o2)cc1 [Compound 203, 4-oxo-7-(propanoyloxy)-2-[4-(propanoyloxy)phenyl]-4H-chromen-5-yl Propanoate]
[1]
  Assay 1 (SGF) (% Remaining @ 1 hours): C (C: >75% of the tested compound remaining)
[2]
  Assay 3 (% Remaining at 24 h): B (B: 25-75% of the tested compound remaining)
[3]
  Assay 2 (SIF) (% @ Remaining 4 hours): A (A: <25% of the tested compound remaining)

## CCCC(=O)O[C@@H]1[C@@H](OC(=O)CCC)[C@H](Oc2ccccc2C(=O)O)OC[C@H]1OC(=O)CCC [Compound 227, 2-{[(2S,3R,4S,5R)-3,4,5-tris(butanoyloxy)oxan-2-yl]oxy}benzoic Acid]
[1]
  Assay 1 (SGF) (% Remaining @ 1 hours): C (C: >75% of the tested compound remaining)
[2]
  Assay 3 (% Remaining at 24 h): A (A: <25% of the tested compound remaining)
[3]
  Assay 2 (SIF) (% @ Remaining 4 hours): A (A: <25% of the tested compound remaining)

## CCCC(=O)Oc1cc(OC(=O)CCC)c2c(c1)O[C@H](c1ccc(OC(=O)CCC)c(OC(=O)CCC)c1)[C@H](OC(=O)CCC)C2 [Compound 235, (2R,3R)-2-[3,4-bis(butanoyloxy)phenyl]-5,7-bis(butanoyloxy)-3,4-dihydro-2H-1-benzopyran-3-yl Butanoate]
[1]
  Assay 1 (SGF) (% Remaining @ 1 hours): C (C: >75% of the tested compound remaining)
[2]
  Assay 3 (% Remaining at 24 h): A (A: <25% of the tested compound remaining)
[3]
  Assay 2 (SIF) (% @ Remaining 4 hours): A (A: <25% of the tested compound remaining)

## CCC(=O)Oc1cc(OC(=O)CC)c2c(c1)O[C@H](c1ccc(OC(=O)CC)c(OC(=O)CC)c1)[C@H](OC(=O)CC)C2 [Compound 236, (2R,3R)-2-[3,4-bis(propanoyloxy)phenyl]-5,7-bis(propanoyloxy)-3,4-dihydro-2H-1-benzopyran-3-yl Propanoate]
[1]
  Assay 1 (SGF) (% Remaining @ 1 hours): B (B: 25-75% of the tested compound remaining)
[2]
  Assay 3 (% Remaining at 24 h): A (A: <25% of the tested compound remaining)
[3]
  Assay 2 (SIF) (% @ Remaining 4 hours): A (A: <25% of the tested compound remaining)

## O=C(Cc1c[nH]c2ccccc12)Oc1cc(C(=O)O)cc(OC(=O)Cc2c[nH]c3ccccc23)c1OC(=O)Cc1c[nH]c2ccccc12 [Compound 237, 3,4,5-tris({[2-(1H-indol-3-yl)acetyl]oxy})benzoic Acid]
[1]
  Assay 1 (SGF) (% Remaining @ 1 hours): C (C: >75% of the tested compound remaining)
[2]
  Assay 3 (% Remaining at 24 h): A (A: <25% of the tested compound remaining)
[3]
  Assay 2 (SIF) (% @ Remaining 4 hours): A (A: <25% of the tested compound remaining)

## CCC(=O)Oc1cc(C(=O)O)cc(OC(=O)CC)c1OC(=O)CC [Compound 239, 3,4,5-tris(propanoyloxy)benzoic Acid]
[1]
  Assay 1 (SGF) (% Remaining @ 1 hours): C (C: >75% of the tested compound remaining)
[2]
  Assay 3 (% Remaining at 24 h): A (A: <25% of the tested compound remaining)
[3]
  Assay 2 (SIF) (% @ Remaining 4 hours): A (A: <25% of the tested compound remaining)

## CCCC(=O)O[C@@H]1[C@H](OC(=O)CCC)C=C(C(=O)O)C[C@H]1OC(=O)CCC [Compound 255, (3R,4S,5R)-3,4,5-tris(butanoyloxy)cyclohex-1-ene-1-carboxylic Acid]
[1]
  Assay 1 (SGF) (% Remaining @ 1 hours): C (C: >75% of the tested compound remaining)
[2]
  Assay 3 (% Remaining at 24 h): B (B: 25-75% of the tested compound remaining)
[3]
  Assay 2 (SIF) (% @ Remaining 4 hours): C (C: >75% of the tested compound remaining)

## C[C@@H]1CCO[C@](C)(C(=O)Oc2ccc(/C=C/c3cc(OC(=O)[C@@]4(C)OCC[C@@H](C)O4)cc(OC(=O)[C@@]4(C)OCC[C@@H](C)O4)c3)cc2)O1 [Compound 257, 3-[(2S,4R)-2,4-dimethyl-1,3-dioxane-2-carbonyloxy]-5-[(1E)-2-{4-[(2S,4R)-2,4-dimethyl-1,3-dioxane-2-carbonyloxy]phenyl}ethenyl]phenyl (2S,4R)-2,4-dimethyl-1,3-dioxane-2-carboxylate]
[1]
  Assay 1 (SGF) (% Remaining @ 1 hours): C (C: >75% of the tested compound remaining)
[2]
  Assay 3 (% Remaining at 24 h): A (A: <25% of the tested compound remaining)
[3]
  Assay 2 (SIF) (% @ Remaining 4 hours): A (A: <25% of the tested compound remaining)

## O=C(CCc1c[nH]c2ccccc12)Oc1ccc(/C=C/c2cc(OC(=O)CCc3c[nH]c4ccccc34)cc(OC(=O)CCc3c[nH]c4ccccc34)c2)cc1 [Compound 259, 4-[(1E)-2-[3,5-bis({[3-(1H-indol-3-yl)propanoyl]oxy})phenyl]ethenyl]phenyl 3-(1H-indol-3-yl)propanoate]
[1]
  Assay 1 (SGF) (% Remaining @ 1 hours): C (C: >75% of the tested compound remaining)
[2]
  Assay 3 (% Remaining at 24 h): B (B: 25-75% of the tested compound remaining)
[3]
  Assay 2 (SIF) (% @ Remaining 4 hours): C (C: >75% of the tested compound remaining)
